{"source": "patent US20220192978A1", "about": "“Pharmaceutical Inhalation Aerosol and Preparation Method Therefor” (CF PharmTech, Inc., priority 2019, published 2022)", "key": {"[1]": {"test": "particle size test of micronized powder (D10, D50, D90, SPAN)", "type": "physicochemical", "conditions": "fine powder used for direct mixing", "source_text": "In the invention, D90 is described as the volume of particles smaller than a certain particle size (x) accounts for 90% of the total volume of the particles, D50 is described as the volume of particles smaller than a certain particle size (x) accounts for 50% of the total volume of the particles, and D10 is described as the volume of particles smaller than a certain particle size (x) accounts for 10% of the total volume of the particles.\nThe pressure of the jet mill was decreased and the above steps were repeated, in order to investigate the effect of pressure (10 bar, 8 bar, 4 bar, 3 bar, 2 bar) on the particle size of the glycopyrronium bromide/indacaterol maleate mixture, the Fine Particle Fraction of glycopyrronium bromide and the degree of co-deposition of the two active ingredients."}, "[2]": {"test": "Anderson cascade impactor (ACI) test of the inhalation aerosol (deposition rate per plate, FPF)", "type": "physicochemical", "conditions": "for Fine Particle Fraction (FPF) (lung): in single or compound preparations (MDI); for FPF of indacaterol maleate (%) / FPF of glycopyrronium bromide (%): inhalation aerosol prepared directly from micronized powder(s), no co-micronization; for Fine Particle Fraction (in words): prepared as a suspension-type inhalation aerosol", "experimental": "Prescription amounts of glycopyrronium bromide and indacaterol maleate were added to an aluminum can, valve-sealed, and filled with propellant, HFA-134a. After being inverted for 2 days, it was tested according to 0951, volume IV general rules of the Pharmacopoeia of the People's Republic of China 2015 Edition. The sum of the deposition from the stage plate 3 to the filter membrane is the Fine Particle Dose (FPD). The FPD (less than 5 μm) divided by the total amount collected by the Anderson cascade impactor (Total Dose, TD) is the Fine Particle Fraction (FPF).\nMicronized powders were precisely weighed and placed in a 14 mL fluorocarbon polymerization (FCP)-coated aluminum can, valve-sealed, filled, ultrasonicated for 10 minutes, and then kept for 2 days for Anderson cascade impactor testing. It was tested according to 0951 device 2, volume IV general rules of the Pharmacopoeia of the People's Republic of China 2015 Edition. The relative humidity of the test environment should be 45% to 55%. The flow rate was adjusted to 28.3±1.5 liters per minute. Take 1 bottle of this product, shake it sufficiently, and discard 4 sprays. Wipe the mouthpiece with ethanol, dry it sufficiently, turn on the vacuum pump, shake for 5 seconds (note that shake for 5 seconds before each spray and the interval between sprays is 30 seconds), insert the product into the adapter, and spray once immediately. After removing the aluminum can and the driver, shake for 5 seconds, reinsert into the adapter, and immediately spray the second time. Repeat this process until the completion of 10 sprays. After the last spray, wait 1 minute, then remove the aluminum can and driver, turn off the vacuum pump, and remove the device. The various plates of the Anderson impactor were washed with a specific ratio of methanol aqueous solution, and the content of the drugs deposited on each plate was determined by HPLC."}}, "note": "Where a name gives a salt, the structure may show the parent alone.", "data": [{"smiles": "CCc1cc2c(cc1CC)CC(NC[C@H](O)c1ccc(O)c3[nH]c(=O)ccc13)C2", "note": "[indacaterol maleate]", "values": [{"measurement": "D90", "setting": "[1]", "value": 3.84, "unit": "μm"}, {"measurement": "Fine Particle Fraction (FPF) (lung)", "setting": "[2]", "value": "40-50%"}, {"measurement": "FPF of indacaterol maleate (%)", "setting": "[2]", "value": 45.66, "unit": "%"}, {"measurement": "FPF of indacaterol maleate (%)", "setting": "[2]; listed as indacaterol fine powder", "value": 45, "unit": "%"}, {"measurement": "Fine Particle Fraction (in words)", "setting": "[2]", "value": "high"}]}, {"smiles": "C[N+]1(C)CCC(OC(=O)C(O)(c2ccccc2)C2CCCC2)C1", "note": "(stereo not shown) [glycopyrronium bromide]", "values": [{"measurement": "D90", "setting": "[1]", "value": 3.43, "unit": "μm"}, {"measurement": "Fine Particle Fraction (FPF) (lung)", "setting": "[2]", "value": "15-20%"}, {"measurement": "FPF of glycopyrronium bromide (%)", "setting": "[2]", "value": 25.68, "unit": "%"}, {"measurement": "FPF of glycopyrronium bromide (%)", "setting": "[2]; listed as glycopyrronium bromide fine powder", "value": 24, "unit": "%"}, {"measurement": "Fine Particle Fraction (in words)", "setting": "[2]", "value": "low"}]}]}
